System: HCMV infected cells
Assay: CTL analysis of HPLC purified pp65-CNBr digest peptides
Type: cell-based, human
Settings: identification method: by experiment
Protocol: For chemical cleavage with CNBr, pp65 was dissolved in 60% formic acid and treated overnight under argon with a 100 fold molar excess of CNBr (over methionine residues). The solvent was evaporated at room temperature under a stream of argon, the residue resuspended in water and lyophilized. The peptides were fractionated by HPLC on a Vydac C4 reverse phase column, using a 90-minute linear gradient from 100% solvent A (0.1% TFA) to 100% solvent B (TFA/H2O/CH3CN, 0.1/9.9/90, v/v/v/). The HPLC purified peaks from map A were subjected to amino acid sequencing (performed by City of Hope) and from map B were used for CTL analysis (performed at the Fred Hutchinson Cancer Center).
Figure 4 is a map produced by the HPLC analysis. The HPLC purified peptide peaks designated by asterisks in Figure 4 were sequenced. These peptides correspond to sequences 1 through 6 (Sequence ID Nos. 1-6), of this application. The invention includes the use of these six peptides or portions thereof to lyse HCMV infected cells, and as immunogens in HCMV vaccines and skin test formulations.

Substance | induction of CTLs that lyse HCMV infected cells
SEQ ID NO:6: C-terminal fragment of HCMV pp65 protein, 62 amino acid residues, amino acid 500-561 | Induces CTLs that lyse HCMV infected cells
SEQ ID NO:1: Fragment of pp65 protein expressed by HCMV (Towne), 98 amino acid residues, amino acid 12-109 | Induces CTLs that lyse HCMV infected cells

From patent publication EP0605432B1, “INDUCTION OF CYTOLYTIC T-L[…] CYTOMEGALOVIRUS POLYPEPTIDES” (CITY OF HOPE, priority 1992, dated 2001)
